Results taken from PubChem BioAssay (NCI).
Several values for one entry are separate records, joined by “and”; a condition that tells them apart may be missing. Equal entries are not always repeated.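 Cells were grown in 96-well plates and exposed to each compound for 48 hours at five concentrations; endpoints were interpolated linearly between bracketing concentrations, or set to the highest concentration if not reached. GI50: concentration for 50% inhibition of growth. The concentration for full growth arrest is given as TGI.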

How the values were obtained:
Test in all cases: growth of human tumour cells (NCI), 48 h
[1] = system: M14 melanoma
[2] = system: U251 CNS
[3] = system: SF-268 CNS
[4] = system: ACHN renal
[5] = system: MDA-MB-231 breast
[6] = system: UACC-62 melanoma
[7] = system: TK-10 renal
[8] = system: SK-MEL-5 melanoma
[9] = system: T-47D breast
[10] = system: SNB-19 CNS

SMILES	GI50 [1] [µM]	TGI [1] [µM]	GI50 [2] [µM]	TGI [2]	GI50 [3] [µM]	TGI [3] [µM]	GI50 [4] [µM]	TGI [4]	GI50 [5]	TGI [5]	GI50 [6] [µM]	TGI [6] [µM]	GI50 [7] [nM]	TGI [7]	GI50 [8] [µM]	TGI [8]	GI50 [9] [µM]	TGI [9] [µM]	GI50 [10] [µM]	TGI [10] [µM]
O=P(O)(O)OCC1OC(n2cnc3c(NCc4ccco4)ncnc32)C(O)C1O (stereo not given)	3.55	> 41	4.33	> 100 µM	3.62	> 79.6	2.2	> 100 µM	479 nM	13.9 µM	2.71	12.5	1770	> 43.9 µM	3.89	> 37.4 µM	3.24	17.3	4.18	> 100
C=C(C)[C@@H]1CC[C@]2(COCCCNCCCN)CC[C@]3(C)[C@H](CC[C@@H]4[C@@]5(C)CC[C@H](OCCCN)C(C)(C)[C@@H]5CC[C@]43C)[C@@H]12	0.866	1.65	0.836	1.54 µM	6.77	15.1	0.996	1.95 µM	863 nM	1.67 µM	0.914	1.67	952	1.94 µM	1.72	5.81 µM	0.858	1.71	0.913	1.66
O=c1cc(-c2ccccc2)oc2ccc(OC/C(=N/O)c3ccc(F)cc3)cc12	4.48	> 50	3.03	43.7 µM	3.62	14.3	10.3	> 50 µM	6160 nM	27.2 µM	5.5	22.8	> 50000	> 50 µM	1.61	6.23 µM	–	–	5.1	> 50
O=C1CSC(c2ccc(-c3nc4ccccc4[nH]3)cc2)=N1	19.7	> 50	17.4	> 50 µM	22.4	> 50	24.7	> 50 µM	> 50000 nM	> 50 µM	12.5	> 50	> 50000	> 50 µM	13	> 50 µM	> 50	> 50	> 50	> 50
COc1cccc(OC(=O)c2ccc(C(F)(F)F)nc2Nc2c(C)cccc2Cl)c1	38.9	> 100	19.1	40.6 µM	24.8	86.8	–	–	12900 nM	42.5 µM	17.3	39.4	–	–	33.3	> 100 µM	18.7	> 100	22.4	73.5
CCN(CC)CCC(=O)OC1C(C)=CC(C)C(=O)CC(C(C)CC2CCC(O)C(OC)C2)OC(=O)C2CCCCN2C(=O)C(=O)[C@@]2(O)OC(CCC2C)CC(OC)\C(C)=C/C=C/C=C/C(C)CC(C)C(=O)C1OC (stereo not given in full)	–	22.6	–	23.1 µM	–	20.5	–	22.2 µM	–	26.7 µM	–	19.8	–	23.2 µM	–	17.2 µM	–	14.6	–	21.6
Nc1ncnc2c1c(-c1ccc(Oc3ccccc3)cc1)nn2C[C@H]1SSC[C@@H]1O	0.071	0.206	1.45	13.2 µM	–	–	0.482	9.3 µM	934 nM	7.84 µM	0.276	0.939	585	2.54 µM	0.545	1.79 µM	0.685	3.63	1.4	12
COc1cc2c3c(n(CCCCNC(=O)OC(C)(C)C)c(=O)c2cc1OC)-c1cc2c(cc1C3=O)OCO2	> 100	> 100	> 100	> 100 µM	15.3	> 100	20.1	> 100 µM	> 100000 nM	> 100 µM	> 100	> 100	> 100000	> 100 µM	> 100	> 100 µM	> 100	> 100	> 100	> 100
Oc1[nH]c(N=C2N=c3ccccc3=N2)c2ccccc12	12.2	38.8	3.4	42.3 µM	11.6	50.8	12.3	29 µM	15200 nM	46.2 µM	11.8	36	21000	55.4 µM	8.57	> 100 µM	8.27	85.8	15.7	93
CC(=O)O[C@@]12CO[C@@H]1C[C@H](O)[C@@]1(C)C(=O)[C@H](O)C3=C(C)[C@@H](OC(=O)[C@H](O)[C@@H](NC(=O)OC(C)(C)C)c4ccccc4)C[C@@](O)([C@@H](OC(=O)c4ccccc4)C12)C3(C)C (stereo not given in full)	–	–	< 0.005	50 µM and > 100 µM	–	81.5	–	50 µM and > 100 µM	7.51 nM and 71.7 nM	28 µM and > 100 µM	0.0922	33.7	–	12.1 µM and > 100 µM	< 0.005	9.05 µM and 14.6 µM	–	–	0.031	> 100
CN(C)C[C@H]1CCn2c(c(C3=C(c4cn(C)c5ccccc45)C(=O)NC3=O)c3ccccc32)C1	4.49	8.47	3.98	8.2 µM	4.71	9.04	4.3	9.87 µM	3960 nM	10.3 µM	4.15	7.98	3610	8.77 µM	4.09	7.71 µM	5.43	11.2	5.65	16.6
O=C1Nc2ccccc2/C1=C\c1cccc(/C=C2/C(=O)Nc3ccccc32)n1	0.484	2.11	0.16	0.346 µM	0.362	1.39	0.308	1.12 µM	1250 nM	2.77 µM	0.32	0.962	416	1.41 µM	0.242	0.722 µM	1.13	3.4	0.526	1.98
